The source of these data is US4946844A, “Optically active benzoquinolizine compounds, process for preparing same, and antibacterial preparation containing same as active ingredient” (Tokyo Tanabe Co., Ltd., priority 1987, dated 1990).

Each structure is given as a SMILES string.

Series [1] has as its system Bacillus subtilis ATCC 6633. As to the kind of experiment: In vitro antibacterial activity (minimum inhibitory concentration). In kind it is cell-based. The following applies: 37° C.; for Minimum inhibitory concentration: 20 hours, hydrochloride monohydrate. The procedure:
(§1) The in vitro antimicrobial activity of a typical compound in accordance with the present invention (hereinafter referred to as the present compound) was evaluated in terms of minimum inhibitory concentrations for various Gram-positive and Gram-negative bacteria. The Gram-positive bacteria used as test microorganisms included Bacillus subtilis, Staphylococcus aureus, Staphylococcus epidermidis and Streptococcus pyogenes, and the Gram-negative bacteria used as test microorganisms included Escherichia coli, Enterobacter cloacae, Klebsiella pneumoniae, Proteus vulgaris, Pseudomonas aeruginosa, Serratia marcescens, Salmonella enteritidis and Morganella morganii. The minimum inhibitory concentrations (for the test microorganisms cultured at 37° C. for 20 hours) were determined according to the standard method prescribed by the Japanese Chemotherapeutic Society (Journal of the Japanese Chemotherapeutic Society, Vol. 29, No. 1, p. 76, 1981). As the present compound, there was used (+)-9-fluoro-5-methyl-8-(4-methyl-1-piperazinyl)-6,7-dihydro-1,7-dioxo1H,5H-benzo[ij]quinolizine-2-carboxylic acid hydrochloride monohydrate which had been prepared in Example 1 described later. For purposes of comparison, control compounds were evaluated in the same manner as described above. These control compounds comprised the optically active (-)-isomer of the aforesaid compound (which had been prepared in Reference Example described later) and the racemate thereof.

In series [2] the test system is Staphylococcus aureus FDA 209P JC-1. The series is described as above. The following applies: 37° C.; for Minimum inhibitory concentration: 20 hours, hydrochloride monohydrate. The series is classed as cell-based. Here is the method:
as §1

Series [3] deals with Staphylococcus epidermidis IAM 1296. The series is described as above. The series is classed as cell-based. Particulars: 37° C.; for Minimum inhibitory concentration: 20 hours, hydrochloride monohydrate. Here is the method: as §1
For series [4], the system named is Morganella morganii IFO 3848. Described as above. In kind it is cell-based. The following applies: 37° C.; for Minimum inhibitory concentration: 20 hours, hydrochloride monohydrate. The procedure:
as §1

The test system of series [5] is Pseudomonas aeruginosa PAO 1. Described as above. In kind it is cell-based. The following applies: 37° C.; for Minimum inhibitory concentration: 20 hours, hydrochloride monohydrate. Here is the method: as §1
The test system of series [6] is Streptococcus pyogenes ATCC 19615. The description is as above. In kind it is cell-based. Particulars: 37° C.; for Minimum inhibitory concentration: 20 hours, hydrochloride monohydrate. Here is the method:
as §1

Series [7] deals with Escherichia coli NIHJ JC-2. The series is described as above. In kind it is cell-based. Particulars: 37° C.; for Minimum inhibitory concentration: 20 hours, hydrochloride monohydrate. Here is the method: as §1
The test system of series [8] is Proteus vulgaris ATCC 13315. The series is described as above. In kind it is cell-based. The following applies: 37° C.; for Minimum inhibitory concentration: 20 hours, hydrochloride monohydrate. Here is the method:
as §1

The subject of series [9] is Serratia marcescens IAM 1184. Described as above. In kind it is cell-based. Particulars: 37° C.; for Minimum inhibitory concentration: 20 hours, hydrochloride monohydrate. The procedure: as §1
In series [10] the test system is Salmonella enteritidis G 14. The series is described as above. The series is classed as cell-based. The following applies: 37° C.; for Minimum inhibitory concentration: 20 hours, hydrochloride monohydrate. Here is the method:
as §1

A further series relates to Enterobacter cloacae 963. The description is as above. The following applies: 37° C.; for Minimum inhibitory concentration: 20 hours, hydrochloride monohydrate. In kind it is cell-based. The procedure: as §1
Series [11] relates to Klebsiella pneumoniae PCI 602. Described as above. In kind it is cell-based. The following applies: 37° C.; for Minimum inhibitory concentration: 20 hours, hydrochloride monohydrate. Here is the method: as §1
The next series is described as follows: Solubility in water. In kind it is physicochemical. Here is the method: The solubilities of the present compound (which had been prepared in Example 1) and its racemate in water were determined.
Series [12] deals with various Gram-positive and Gram-negative bacteria. As to the kind of experiment: In vitro antibacterial activity over all test microorganisms (comparison of potency). The series is classed as cell-based. The following applies: versus racemate. Here is the method:
as §1, with “These control compounds comprised the optically active (-)-isomer of the aforesaid compound (which had been prepared in Reference Example described later) and the racemate thereof.” left out

For the compound `CC1CC(=O)c2c(N3CCN(C)CC3)c(F)cc3c(=O)c(C(=O)O)cn1c23.Cl.O` (racemic) [Racemate, (±)-9-fluoro-5-methyl-8-(4-methyl-1-piperazinyl)-6,7-dihydro-1,7-dioxo-1H,5H-benzo[ij]quinolizine-2-carboxylic acid hydrochloride monohydrate], the minimal inhibitory concentration (MIC) in [1] (Bacillus subtilis, ATCC6633, 20 h) came out at 0.1 µg/mL; in series [2] (Staphylococcus aureus, FDA209P, 20 h), 0.39 µg/mL; in series [3] (Staphylococcus epidermidis, IAM1296, 20 h), 1.56 µg/mL; in [4] (Morganella morganii, IFO3848, 20 h) it was 0.1 µg/mL; in [5] (Pseudomonas aeruginosa, PAO1, 20 h) it was 1.56 µg/mL; in series [6] (Streptococcus pyogenes, ATCC19615, 20 h), 6.25 µg/mL. For the same compound, the minimum inhibitory concentration (MIC) in series [7] (Escherichia coli, NIHJJC2, 20 h) is 0.2 µg/mL; in [8] (Proteus vulgaris, ATCC13315, 20 h), 0.2 µg/mL; in series [9] (Serratia marcescens, IAM1184, 20 h), 1.56 µg/mL; in series [10] (Salmonella enterica, ENTERITIDIS, 20 h), 0.78 µg/mL; in the series on Enterobacter cloacae 963 (Enterobacter cloacae, 963, 20 h) it was 0.2 µg/mL; in series [11] (Klebsiella pneumoniae, PCI602, 20 h) it was 0.1 µg/mL. For the same compound, in “Solubility in water”, the solubility was about 7 mg/mL.
On to `CC1CC(=O)c2c(N3CCN(C)CC3)c(F)cc3c(=O)c(C(=O)O)cn1c23.Cl.O` (single isomer, unassigned; (-)) [(-)-isomer, (-)-9-fluoro-5-methyl-8-(4-methyl-1-piperazinyl)-6,7-dihydro-1,7-dioxo-1H,5H-benzo[ij]quinolizine-2-carboxylic acid hydrochloride monohydrate], for which the Minimum inhibitory concentration in series [1] was 1.56 µg/mL; in series [2] it was 25 µg/mL; in [3], 50 µg/mL; in series [4] it was 0.78 µg/mL; in series [5], 12.5 µg/mL; in [6], over 100 µg/mL. Besides, the Minimum inhibitory concentration in series [7] came to 3.13 µg/mL; in [8] it was 0.78 µg/mL; in [9], 3.13 µg/mL; in [10], 1.56 µg/mL; with Enterobacter cloacae 963, 3.13 µg/mL; in series [11], 0.78 µg/mL.
In the case of `CC1CC(=O)c2c(N3CCN(C)CC3)c(F)cc3c(=O)c(C(=O)O)cn1c23.Cl.O` (single isomer, unassigned; (+)) [Present compound, (+)-9-fluoro-5-methyl-8-(4-methyl-1-piperazinyl)-6,7-dihydro-1,7-dioxo-1H,5H-benzo[ij]quinolizine-2-carboxylic acid hydrochloride monohydrate], the Minimum inhibitory concentration in [1] was 0.05 µg/mL; in series [2], 0.20 µg/mL; in series [3] it was 0.39 µg/mL; in series [4], at most 0.025 µg/mL; in series [5], 0.78 µg/mL; in series [6], 0.78 µg/mL. In addition, the Minimum inhibitory concentration was 0.10 µg/mL in [7]; 0.10 µg/mL in [8]; 0.39 µg/mL in series [9]; 0.20 µg/mL in series [10]; 0.10 µg/mL with Enterobacter cloacae 963; at most 0.025 µg/mL in [11]. Further, the “antibacterial activity relative to the racemate (compound [I])” value in series [12] is reported as “about twice as potent”. In the series “Solubility in water”, the solubility is about 180 mg/mL. Moreover, in “Solubility in water” (versus racemate), the “solubility relative to the racemate” value was “about 25 times”.
